{"source": "patent US20090105206A1", "about": "“Copper Melphalan And Copper Tegafur As Anti-Tumor Agents” (priority 2004, published 2009)", "key": {"[1]": {"tested_on": "murine renal cell carcinoma (RENCA) tumor cells applied orthotopically", "experiment": "Example 3: murine renal cell carcinoma model (RENCA), substance Day 10-18", "assay_type": "in vivo, Balb/c mouse", "settings": "5 and 7.5 mg/kg per day i.p., Day 10-18, findings Day 19", "method": "Using a murine renal cell carcinoma model (RENCA) of the Balb/c mouse a test of the effectiveness of mel-Cu-mel was carried out on the primary tumor, the metastases and the vessel density. For this the tumor cells were applied orthotopically into the left-hand peri-renal capsule of syngenic mice, the administered dose per day of treatment being: 5 mg/kg mouse and 7.5 mg/kg mouse, 5 animals per dose plus 5 animals for solvent control. The anti-tumor agent according to the invention Cu(mel)2 was applied intraperitonial. The treatment model was as follows:\nAs a control 5 animals were used to which no active ingredient was administered and for comparison a group of 5 animals were administered melphalan alone."}, "[2]": {"tested_on": "murine renal cell carcinoma (RENCA) tumor cells applied orthotopically", "experiment": "Example 4: orthotopic renal cell carcinoma model (RENCA), treatment Day 1-7; primary tumor, metastases, vessel density (anti-CD31)", "assay_type": "in vivo, Balb/c mouse", "settings": "for Kidney weight / Lung weight / Number of intestinal lymph node metastases / Number of lung metastases: day 19; for Kidney weight / Lung weight / Number of intestinal lymph node metastases / Number of lung metastases / Kidney volume: individual animals; for Kidney volume: test ended day 19", "method": "(§1) The tests were carried out on a murine renal cell carcinoma model (RENCA) of the Balb/c mouse. The tumor cells were applied orthotopically into the left-hand renal capsule of syngenic mice. The effect of the treatment carried out on a primary tumor (in the implanted kidney), metastases (predominantly in the lungs, spleen and intestinal lymph nodes) and vessel density were investigated.\n(§2) After anesthesia by means of isoflurane narcosis (O2— flow approx. 2.0 l with 0.5-1.5% isoflurane) a small incision was made in the mouse's left flank. The kidney was prepared and presented free from the peritoneum. A 27 G needle was introduced via the lower kidney pole through to below the renal capsule with visual inspection, and […] in 70 μl aliquots respectively applied once. The occurrence of a visible liquid-filled blister between kidney parenchyma and renal capsule and the discoloration of the kidneys were regarded as criteria for successful application. The kidney was subsequently reset and the incision into the abdominal wall closed by means of fascia stitches and cutaneous stitches with absorbable stitching material. Five test groups with ten animals respectively were formed. Group 1 negative control, group 2 positive control melphalan (Glaxo), group 3 and 4 MOC melphalan 2.5 mg/kg and 5 mg/kg. In the case of group 5 an antiangiogenically effective substance was applied as the positive control. The start of treatment was fixed for day 1 post op. for Cu(melphalan)2. Treatment was carried out daily up to day seven (see treatment model). The test was ended after 19 days since, owing to their size, the control tumors required termination for ethical reasons.\n• The implantation day was counted as day 0. • Duration of the test 19 days. • Number of animals at beginning of test 50, no animals died during the op.\n(§3) After selecting the animals the tissues to be examined were quickly transferred into liquid nitrogen and then frozen at −80° C. 5-10 μm thick sections were prepared from the tissue parts. The preparations were immunohistochemically dyed with an anti-CD31 antibody (Pecam-1) and the number of vessels in the control and treatment groups counted. Two sections of each tumor with three areas respectively were used for counting the vessels."}, "[3]": {"tested_on": "murine renal cell carcinoma (RENCA) tumor cells applied orthotopically", "experiment": "Example 5: orthotopic RENCA model, late treatment from Day 10", "assay_type": "in vivo, Balb/c mouse", "settings": "for Kidney weight / Lung weight / Number of intestinal lymph node metastases / Number of lung metastases (late treatment day 10-14) / Kidney volume: day 18, individual animals; for Vessel density, later start of treatment day 10-14: individual sections", "method": "as §1, §2, §3\nThe study report matches that of Example 4, differing only in terms of treatment intervals and dose groups. Four test groups with ten animals respectively were formed. Group 1 negative control, group 2 positive control melphalan (Glaxo), groups 3 and 4 Cu(melphalan)2 5 mg/kg and 7.5 mg/kg. The start of treatment was fixed for day 10 post op. for all groups. The intention was for daily treatment from day 10 until day 17 (see treatment model). Owing to toxicities the treatment period was reduced to day 10-14. After 18 days the test was ended since, owing to their size, the control tumors required termination for ethical reasons.\n• The implantation day was counted as day 0. • Duration of the test 18 days. • Number of animals at beginning of test 40; no animals died during the op."}, "[4]": {"settings": "Cu(melphalan)2 4.4 μmol/kg (2.5 mg/kg) i.p. Day 1-7"}, "[5]": {"settings": "Cu(melphalan)2 8.8 μmol/kg (5 mg/kg/d) i.p. Day 1-7"}, "[6]": {"settings": "dose of 2.5 mg/kg and 5 mg/kg, Day 1-7 i.p."}, "[7]": {"settings": "Cu(melphalan)2 8.8 μmol/kg (5 mg/kg) i.p. Day 10-14"}, "[8]": {"settings": "Cu(melphalan)2 13.2 μmol/kg (7.5 mg/kg/d) i.p. Day 10-14"}}, "note": "Values joined by “and” are separate entries in the source; they are usually repeats but may differ in a detail not shown here. Equal values may be shown once.", "data": [{"smiles": "N[C@@H](Cc1ccc(N(CCCl)CCCl)cc1)C(=O)[O-].N[C@@H](Cc1ccc(N(CCCl)CCCl)cc1)C(=O)[O-].O.O.[Cu+2]", "note": "[Cu(melphalan)2]", "values": [{"measurement": "kidney weight and kidney volume compared with the control (FIG. 5)", "setting": "[1]", "value": "significantly lower kidney weight and kidney volume"}, {"measurement": "lung weight compared with the control and with melphalan alone (FIG. 6)", "setting": "[1]", "value": "reduced"}, {"measurement": "chemical stability", "setting": "blue solid", "value": "chemically stable"}, {"measurement": "effectiveness compared with melphalan", "setting": "investigations of kidney cell carcinoma and lung metastases formation", "value": "much more effective than melphalan"}, {"measurement": "Kidney weight", "setting": "[2]; [4]", "value": "0.78 gr and 2.00 gr and 0.81 gr and 0.38 gr and 1.58 gr and 1.02 gr and 1.28 gr and 1.06 gr and 1.15 gr and 0.29 gr"}, {"measurement": "Lung weight", "setting": "[2]; [4]", "value": "0.20 gr and 0.31 gr and 0.49 gr and 1.07 gr and 0.11 gr (2×) and 0.14 gr and 0.24 gr and 0.13 gr (2×)"}, {"measurement": "Number of intestinal lymph node metastases", "setting": "[2]; [4]", "value": "1 and 2 and 3 and 4 and 0 (5×) and 6"}, {"measurement": "Number of lung metastases", "setting": "[2]; [4]", "value": "378 and >750 (4×) and 9 and 49 and 29 and 3 and 570"}, {"measurement": "Kidney volume", "setting": "[2]; [4]", "value": "1.54 cm^3 and 2.2 cm^3 and 1.2 cm^3 and 0.96 cm^3 and 2.13 cm^3 and 1.53 cm^3 and 1.71 cm^3 (2×) and 1.80 cm^3 and 0.60 cm^3"}, {"measurement": "Kidney weight", "setting": "[2]; [5]", "value": "0.79 gr (2×) and 0.19 gr and 1.06 gr and 0.59 gr and 0.85 gr and 0.74 gr and 0.18 gr and 0.29 gr and 0.36 gr"}, {"measurement": "Lung weight", "setting": "[2]; [5]", "value": "0.14 gr (2×) and 0.16 gr and 0.15 gr and 0.11 gr and 0.21 gr and 0.31 gr and 0.22 gr and 0.18 gr and 0.13 gr"}, {"measurement": "Number of intestinal lymph node metastases", "setting": "[2]; [5]", "value": "0 (8×) and 4 and 2"}, {"measurement": "Number of lung metastases", "setting": "[2]; [5]", "value": "11 and 4 (2×) and 162 and 0 and 680 and 16 and 610 and 92 and 7"}, {"measurement": "Kidney volume", "setting": "[2]; [5]", "value": "1.24 cm^3 and 0.44 cm^3 and 1.5 cm^3 and 1.2 cm^3 and 1.33 cm^3 and 1.30 cm^3 and 1.12 cm^3 and 0.6 cm^3 and 0.64 cm^3 and 1.26 cm^3"}, {"measurement": "effectiveness compared with melphalan", "setting": "[2]; approximately quarter-equimolar dose (2.5 mg/kg, 4.4 μmol/kg vs 16.4 μmol/kg melphalan)", "value": "Effectiveness comparable with melphalan"}, {"measurement": "effectiveness compared with melphalan alone", "setting": "[2]; approximately semi-equimolar dose (5 mg/kg, 8.8 μmol/kg vs 16.4 μmol/kg melphalan)", "value": "better effectiveness than melphalan alone"}, {"measurement": "anti-metastatic effect, intestinal lymph node metastases", "setting": "[2]; [6]", "value": "significant anti-metastatic effect"}, {"measurement": "anti-tumor effect (primary tumor)", "setting": "[2]; [6]", "value": "significant anti-tumor effect"}, {"measurement": "anti-metastatic effect, lung metastases", "setting": "[2]; dose of 5 mg/kg, Day 1-7 i.p.", "value": "significant anti-metastatic effect"}, {"measurement": "Kidney weight", "setting": "[3]; [7]", "value": "1.70 gr and 1.78 gr (2×) and 1.88 gr and 1.23 gr and 0.75 gr and 1.56 gr"}, {"measurement": "Lung weight", "setting": "[3]; [7]", "value": "0.11 gr (2×) and 0.14 gr and 0.15 gr and 0.13 gr (2×) and 0.21 gr"}, {"measurement": "Number of intestinal lymph node metastases", "setting": "[3]; [7]", "value": "20 and 40 and 36 and 12 and 64 and 51 and 75"}, {"measurement": "Number of lung metastases (late treatment day 10-14)", "setting": "[3]; [7]", "value": "28 and 0 (2×) and 21 and 345 and 431 and 750"}, {"measurement": "Vessel density, later start of treatment day 10-14", "setting": "[3]; [7]", "value": "44 (2×) and 38 and 34 and 56 (2×) and 46 and 26 and 51 and 72 and 25 and 35 and 40 and 31"}, {"measurement": "Kidney volume", "setting": "[3]; Cu(melphalan)2 8.8 μmol/kg (5 mg/kg) i.p. from Day 10 (planned 10-17, reduced to 10-14)", "value": "3.12 cm^3 and 2.60 cm^3 and 2.63 cm^3 and 2.08 cm^3 and 2.90 cm^3 and 1.96 cm^3 and 2.76 cm^3"}, {"measurement": "Kidney weight", "setting": "[3]; [8]", "value": "1.37 gr and 2.39 gr and 0.26 gr and 1.90 gr and 1.05 gr and 0.27 gr and 1.92 gr and 0.46 gr and 2.50 gr and 0.74 gr"}, {"measurement": "Lung weight", "setting": "[3]; [8]", "value": "0.11 gr and 0.13 gr (2×) and 0.10 gr"}, {"measurement": "Number of intestinal lymph node metastases", "setting": "[3]; [8]", "value": 0}, {"measurement": "Number of lung metastases (late treatment day 10-14)", "setting": "[3]; [8]", "value": "0 (4×) and 3 and 77 and 750 and 300 and 4 and 10"}, {"measurement": "Vessel density, later start of treatment day 10-14", "setting": "[3]; [8]", "value": "35 (2×) and 52 and 58 and 43 and 48 and 65 and 53"}, {"measurement": "Kidney volume", "setting": "[3]; Cu(melphalan)2 13.2 μmol/kg (7.5 mg/kg/d) i.p. from Day 10 (planned 10-17, reduced to 10-14)", "value": "1.96 cm^3 and 3.08 cm^3 and 0.60 cm^3 and 2.60 cm^3 and 1.98 cm^3 and 0.91 cm^3 and 3.06 cm^3 and 1.22 cm^3 and 3.33 cm^3 and 1.68 cm^3"}, {"measurement": "antiangiogenic effect (vessel density)", "setting": "[3]; dose of 8.8 μmol/kg, Day 10-14", "value": "significantly antiangiogenic"}, {"measurement": "anti-metastatic effect, lung metastases and lymph node metastases", "setting": "[3]; dose of 13.2 μmol/kg, Day 10-14", "value": "significant anti-metastatic effect"}, {"measurement": "anti-tumoral effect against the primary tumor", "setting": "[3]; dose of both 8.8 μmol/kg and 13.2 μmol/kg, Day 10-14", "value": "significant anti-tumoral effect"}]}]}
